Entries after “also recorded” stand apart in the source; their conditions may differ.
Tested on: H3K4 methylation and H3 acetylation in MCF-7 breast cancer cells
Assay: Middle-down mass spectrometry of histone H3 from MCF-7 cells ± KDAC inhibition (H3K4 methylation and H3 acetylation)
Type: cell-based
Details: for 0ac state, percent of total H3 / 1ac state, percent of total H3 / 2ac state, percent of total H3 / 3ac state, percent of total H3 / 4ac state, percent of total H3 / 5ac state, percent of total H3: MCF-7, 5 mM butyrate 1H; for percent H3K4me3: sheet percentsk4me3
Procedure: MCF-7 breast cancer cells (ATCC HTB-22) were grown in MEM (Gibco) supplemented with 10% fetal bovine serum (VWR), 100 I.U. penicillin, 100 µg/mL streptomycin (Corning), 0.01 mg/mL human recombinant insulin (Gibco), and 5 µg/mL plasmocin (Invivogen) at 37 °C and 5% CO2. HEK-293 (ATCC CRL-1573) was grown in DMEM (Gibco) supplemented with 10% fetal bovine serum (Corning), 100 I.U. penicillin, and 100 µg/mL streptomycin (Gibco) at 37 °C and 5% CO2. Both cell lines were authenticated via STR profiling and confirmed to be Mycoplasma negative.
For mass spectrometric (MS) analysis ± KDAC inhibition, cells were cultured in 150 mm dishes to ~80% confluence and treated with 5 mM sodium butyrate (or equivalent volume of water) in triplicate for 0, 10, 20, 30, 60, 120 min. […] Histones were acid extracted after nuclei isolation as described ([Holt et al., 2021]). Isolated histones were resuspended in 85 µL 5% acetonitrile, 0.2% trifluoroacetic acid (TFA), and resolved by offline high-performance liquid chromatography (HPLC) as described ([Holt et al., 2021]). […] After chromatographic separation and fraction collection, histone H3.1 was selected, diluted in 100 mM ammonium acetate (pH = 4), and digested with Glu-C protease (Roche) at 10:1 protein:enzyme for 1 hr at room temperature prior to mass spectrometric analysis.
The digested samples were diluted to 2 µg/µL. Online HPLC was performed on a U3000 RSLC nano Pro-flow system using a C3 column (Zorbax 300 SB-C3, 5 µm; Agilent). Samples were maintained at 4 °C and 1 µL injected for each analysis using a microliter pickup. […] The column eluant was introduced into an Orbitrap Fusion Lumos mass spectrometer (Thermo Fisher) by nano-electrospray ionization. A static spray voltage of 1900 V and an ion transfer tube temperature of 320 °C were set for the source.
A Fusion Lumos mass spectrometer was used to generate MS data. The 9th charge state of histone H3 was targeted for analysis. MS1 analysis was acquired in the orbitrap with a normal mass range and a 60 k resolution setting in positive ion mode. An Automatic Gain Control (AGC) target of 5.0E5 with a 200 ms maximum injection time, three microscans, and a scan range of 585–640 m/z was used to identify desired ions for fragmentation. MS2 acquisition was performed in both orbitrap and ion trap modes. Both modes used electron transfer dissociation (ETD), a reaction time of 18ms, and an injection time of 200 ms. A normal scan range was used for the orbitrap mode with a resolution setting of 30 k and an AGC target of 5.0E5, with two micro scans. A narrow scan range of 470–530 m/z, targeting ions indicative of K4 modification states, was used for the ion trap mode MS2 with an ACG target of 3.0E4, quadrupole isolation, maximum injection time of 100ms, and eight microscans.
These MS methods were used with two technical replicates per biological replicate (n=3). An MS ion trap mode with a targeted mass list was used to increase sensitivity to identify known low-abundance K4me3-containing proteoforms. The ion trap MS2 spectra were averaged for each H3 acetyl state based on known retention times, and the intensities of ions indicative of the K4 methylation states were manually recorded. Retention times for each acetyl state were approximated as 0ac 35–40 min, 1ac 45–55 min, 2ac 55–60 min, 3ac 62–68 min, 4ac 69–73 min, and 5ac 74–78 min. Precursor mass was used as an additional confirmation and filter of the correct acetyl state. For scans yielding low signal and high noise (i.e. 5ac at 0 min butyrate treatment), data were manually curated before averaging. Within acetyl states, the relative proportion of fragment ions for unmodified, mono-, di-, and tri-methylation of the H3K4 ion at respective m/z of 474, 488, 502, and 516 were recorded per MS run. Values were averaged across replicates of the same conditions and normalized to one hundred percent. A two-tailed t-test was used for significance. […]

SMILES: CCCC(=O)O [sodium butyrate]
- 0ac state, percent of total H3 (AVG n=3): 38.12%
- 1ac state, percent of total H3 (AVG n=3): 25.98%
- 2ac state, percent of total H3 (AVG n=3): 20.63%
- 3ac state, percent of total H3 (AVG n=3): 12.03%
- 4ac state, percent of total H3 (AVG n=3): 2.14%
- 5ac state, percent of total H3 (AVG n=3): 1.10%
- 0ac state, percent of total H3 (normalized, replicate 1): 53.59%
- 1ac state, percent of total H3 (normalized, replicate 1): 15.56%
- 2ac state, percent of total H3 (normalized, replicate 1): 13.01%
- 3ac state, percent of total H3 (normalized, replicate 1): 15.85%
- 4ac state, percent of total H3 (normalized, replicate 1): 1.53%
- 5ac state, percent of total H3 (normalized, replicate 1): 0.47%
- 0ac state, percent of total H3 (normalized, replicate 2): 28.79%
- 1ac state, percent of total H3 (normalized, replicate 2): 37.29%
- 2ac state, percent of total H3 (normalized, replicate 2): 21.30%
- 3ac state, percent of total H3 (normalized, replicate 2): 8.21%
- 4ac state, percent of total H3 (normalized, replicate 2): 3.37%
- 5ac state, percent of total H3 (normalized, replicate 2): 1.05%
- 0ac state, percent of total H3 (normalized, replicate 3): 31.98%
- 1ac state, percent of total H3 (normalized, replicate 3): 25.08%
- 2ac state, percent of total H3 (normalized, replicate 3): 27.59%
- 3ac state, percent of total H3 (normalized, replicate 3): 12.04%
- 4ac state, percent of total H3 (normalized, replicate 3): 1.54%
- 5ac state, percent of total H3 (normalized, replicate 3): 1.77%
- percent H3K4me3 (MCF-7, 5 mM butyrate 10M, 0ac, AVG n=3): 1.08%
- percent H3K4me3 (MCF-7, 5 mM butyrate 10M, 1ac, AVG n=3): 0.40%
- percent H3K4me3 (MCF-7, 5 mM butyrate 10M, 2ac, AVG n=3): 1.95%
- percent H3K4me3 (MCF-7, 5 mM butyrate 10M, 3ac, AVG n=3): 2.18%
- percent H3K4me3 (MCF-7, 5 mM butyrate 10M, 4ac, AVG n=3): 1.30%
- percent H3K4me3 (MCF-7, 5 mM butyrate 10M, 5ac, AVG n=3): 0.42%
- percent H3K4me3 (MCF-7, 5 mM butyrate 30M, 0ac, AVG n=3): 1.93%
- percent H3K4me3 (MCF-7, 5 mM butyrate 30M, 1ac, AVG n=3): 1.29%
- percent H3K4me3 (MCF-7, 5 mM butyrate 30M, 2ac, AVG n=3): 1.93%
- percent H3K4me3 (MCF-7, 5 mM butyrate 30M, 3ac, AVG n=3): 1.64%
- percent H3K4me3 (MCF-7, 5 mM butyrate 30M, 4ac, AVG n=3): 2.14%
- percent H3K4me3 (MCF-7, 5 mM butyrate 30M, 5ac, AVG n=3): 4.20%
- percent H3K4me3 (MCF-7, 5 mM butyrate 60M, 1ac, AVG n=3): 1.27%
- percent H3K4me3 (MCF-7, 5 mM butyrate 60M, 2ac, AVG n=3): 1.44%
- percent H3K4me3 (MCF-7, 5 mM butyrate 60M, 3ac, AVG n=3): 1.39%
- percent H3K4me3 (MCF-7, 5 mM butyrate 120M, 0ac, AVG n=3): 1.23%
- percent H3K4me3 (MCF-7, 5 mM butyrate 120M, 1ac, AVG n=3): 1.92%
- percent H3K4me3 (MCF-7, 5 mM butyrate 120M, 2ac, AVG n=3): 2.41%
- percent H3K4me3 (MCF-7, 5 mM butyrate 120M, 3ac, AVG n=3): 1.99%
- percent H3K4me3 (MCF-7, 5 mM butyrate 120M, 4ac, AVG n=3): 4.58%
- percent H3K4me3 (MCF-7, 5 mM butyrate 120M, 5ac, AVG n=3): 21.35%
- H3K4 methylation, in words (MCF-7, 5 mM sodium butyrate): increase in all H3K4 methyl states relative to the unmodified state concomitant with increasing states of H3 acetylation; also recorded: H3K4me3 levels most dramatically increased in tandem with the 5ac H3 state; also recorded: H3K4 methylation increased for the most highly acetylated proteoforms
- H3 poly-acetylation, in words (MCF-7, 5 mM sodium butyrate): H3 poly-acetylation rapidly increased

— publication PMC10229121, “An acetylation-mediated chromatin switch governs H3K4 methylation read-write capability” (eLife, 2023)
